For two compounds, Ki results are on record in patent publication US7696234B2, “Histamine H3 receptor agents, preparation and therapeutic uses” (Eli Lilly and Company, priority 2004, dated 2010).

The assay deals with T1, H3R membranes (human histamine 3 receptor) (Homo sapiens, UniProt Q9Y5N1).
T1 construct: expressed in transfected cells; pcDNA3.1(+) vector, G418 selection)
The experiment in a line: [35S] GTP γ [S] Binding Assay. Format: biochemical. Particulars: inhibition of [35S]GTPγS binding to membranes from H3R8-expressing HEK293 cells in the presence of agonist R(−)alpha methylhistamine. Here is the method:
Membranes isolated as described in (Preparation of Histamine Receptor Subtype Membranes) were used in a [35S]GTPχS functional assay. Binding of [35S]GTPχS to membranes indicates agonist activity. Compounds of the invention of Formula I were tested for their ability to inhibit binding in the presence of agonists. Alternately, the same transfected cell lines were used for a cAMP assay wherein H3R agonists inhibited forskolin-activated synthesis of cAMP. Compounds of Formula I were tested for their ability to permit forskolin-stimulated cAMP synthesis in the presence of agonist. cDNA for the human histamine 3 receptor was cloned and expressed as described in (A. Preparation H1R membranes), above. Transfected cells were selected using G418 ([…]), grown, and tested for histamine binding by the SPA described above. For total binding, cells were assayed in a SPA reaction described above containing 50 mM Tris-HCL (assay buffer), pH 7.6, 1 mg wheat germ agglutinin SPA beads (Amersham Pharmacia Biotech, #RPNQ0001), and 1 nM (^3H)-n-alpha-methylhistamine (NEN, NET1027) (total volume per well=200 μl). Thioperimide was added to determine non-specific binding. Several clones were selected as positive for binding, and a single clone (H3R8) was used to prepare membranes for binding studies described above. […] Plates were counted in Wallac Trilux 1450 Microbeta scintillation counter for 1 minute. […]

T1 sequence (Q9Y5N1 whole entry): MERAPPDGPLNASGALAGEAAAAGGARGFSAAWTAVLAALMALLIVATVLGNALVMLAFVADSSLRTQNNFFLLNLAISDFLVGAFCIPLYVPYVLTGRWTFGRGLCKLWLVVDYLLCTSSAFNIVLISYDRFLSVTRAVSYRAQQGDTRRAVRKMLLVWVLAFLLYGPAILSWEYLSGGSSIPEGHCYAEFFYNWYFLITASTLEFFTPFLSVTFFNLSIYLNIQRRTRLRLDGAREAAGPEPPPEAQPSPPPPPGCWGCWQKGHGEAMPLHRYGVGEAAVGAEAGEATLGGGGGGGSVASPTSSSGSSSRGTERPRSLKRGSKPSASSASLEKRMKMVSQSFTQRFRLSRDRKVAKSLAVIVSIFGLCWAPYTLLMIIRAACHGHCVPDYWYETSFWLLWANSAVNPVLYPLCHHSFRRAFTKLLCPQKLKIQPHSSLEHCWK

Take `COc1ccc(COc2ccc(C(=O)N3CCC[C@H]3CN3CCCC3)cc2)cc1`: the Ki was 19 nM.
In the case of `O=C(c1ccc(OCc2cnccn2)cc1)N1CCC[C@H]1CN1CCCC1` it was 4.1 nM.

A word on the Ki: it is the equilibrium dissociation constant of an inhibitor or competing ligand from its target.
